# What was measured:
# mTR-GCCG [1] = details: for Activity lower than that of the wild type enzyme: Sec to Cys mutant versus WT, pH 7.0
# mTR-GCCG [2] = type: biochemical, mouse; details: mTR-GCCG versus mTR-GCUG
SMILES,Activity lower than that of the wild type enzyme (mTR-GCCG [1]),IC50 increase on mutation of Sec to Cys (mTR-GCCG [2]) [fold],also measured
"O=C(O)CCCC[C@@H]1CCSS1 [Lipoic Acid, lipoic acid]",,,Km increase in the Cys2 mutant (mTR-GCCG [1]; versus full-length WT enzyme): 2.3 fold
N[C@@H](C[Se][Se]C[C@H](N)C(=O)O)C(=O)O [selenocystine],3.7 fold,,
"O=[Se]([O-])[O-].[Na+].[Na+] [selenite, sodium selenite]",~ 2 fold,,
OC[C@H]1O[C@H]([S-])[C@H](O)[C@@H](O)[C@@H]1O.[Au+] [aurothioglucose],,1.7,
CC(=O)OC[C@H]1O[C@@H]([S-])[C@H](OC(C)=O)[C@@H](OC(C)=O)[C@@H]1OC(C)=O.CCP(CC)CC.[Au+] [auranofin],,4,

# From article PMC2754045 (Biochemistry, 2009)
